Assay results taken from patent US20020026053A1, “Novel 3-(substituted) -2- indolinones compounds and use thereof as inhibitors of protein kinase activity” (priority 1997, published 2002).

Test system: FLK-1 receptor
Experiment: FLK-1 Assay (cellular/catalytic ELISA, VEGF-stimulated phosphotyrosine)
Type: cell-based
Design: concentration or dose not given beside the values
Details: protocol P.110
Method in brief: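 NIH3T3 C7#3 cells engineered to express Flk-1 were serum-starved overnight (0.1% FBS), then exposed to compound for 2 h at 37 °C (final dilution 1:200, 0.5% DMSO) before VEGF stimulation. Lysates captured on anti-FLK-1 antiserum plates; phosphotyrosine detected by UB40 antibody/POD-ABTS ELISA versus untreated controls.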

| SMILES | Flk Kinase % Inhibition (P.110) |
| --- | --- |
| O=C1Nc2ccc(S(=O)(=O)N3CCOCC3)cc2C1=Cc1cc(F)ccc1F [10737/F04] | 12.2% |
| O=C1Nc2ccc(S(=O)(=O)N3CCOCC3)cc2C1=Cc1cccc(F)c1F [10737/F05] | 18.4% |
| COc1ccc(C=C2C(=O)Nc3ccc(S(=O)(=O)N4CCOCC4)cc32)cc1F [10737/F06] | 12.3% |
| Cc1ccc(C)c(C=C2C(=O)Nc3ccc(S(=O)(=O)N4CCOCC4)cc32)c1 [10737/F07] | 19.1% |
| O=C1Nc2ccc(S(=O)(=O)N3CCOCC3)cc2C1=Cc1ccc2ccccc2c1 [10737/F08] | 20.7% |
| O=C1Nc2ccc(S(=O)(=O)N3CCOCC3)cc2C1=Cc1ccc(Oc2ccccc2)cc1 [10737/F09] | 15.4% |
| CC(C)(C)c1ccc(Oc2cccc(C=C3C(=O)Nc4ccc(S(=O)(=O)N5CCOCC5)cc43)c2)cc1 [10737/F10] | 26.1% |
| O=C1Nc2ccc(S(=O)(=O)N3CCOCC3)cc2C1=Cc1cccc(Oc2cccc(C(F)(F)F)c2)c1 [10737/F11] | 31.6% |
| CCOc1ccc(C=C2C(=O)Nc3ccc(CCCl)cc32)cc1 [10737/G02] | 8.7% |
| Cc1ccc(C=C2C(=O)Nc3ccc(CCCl)cc32)c(C)c1 [10737/G03] | 13.6% |
| O=C1Nc2ccc(CCCl)cc2C1=Cc1cc(F)ccc1F [10737/G04] | 12.1% |
| O=C1Nc2ccc(CCCl)cc2C1=Cc1cccc(F)c1F [10737/G05] | 16.4% |
| COc1ccc(C=C2C(=O)Nc3ccc(CCCl)cc32)cc1F [10737/G06] | 12.8% |
| Cc1ccc(C)c(C=C2C(=O)Nc3ccc(CCCl)cc32)c1 [10737/G07] | 20.3% |
| O=C1Nc2ccc(CCCl)cc2C1=Cc1ccc2ccccc2c1 [10737/G08] | 16.4% |
| O=C1Nc2ccc(CCCl)cc2C1=Cc1ccc(Oc2ccccc2)cc1 [10737/G09] | 15.2% |
| CC(C)(C)c1ccc(Oc2cccc(C=C3C(=O)Nc4ccc(CCCl)cc43)c2)cc1 [10737/G10] | 13.3% |
| O=C1Nc2ccc(CCCl)cc2C1=Cc1cccc(Oc2cccc(C(F)(F)F)c2)c1 [10737/G11] | 11.7% |
| CCOc1ccc(C=C2C(=O)Nc3c(Br)cc(Br)c(C)c32)cc1 [10737/H02] | 3.1% |
| Cc1ccc(C=C2C(=O)Nc3c(Br)cc(Br)c(C)c32)c(C)c1 [10737/H03] | 3.2% |
| Cc1c(Br)cc(Br)c2c1C(=Cc1cc(F)ccc1F)C(=O)N2 [10737/H04] | 11.6% |
| Cc1c(Br)cc(Br)c2c1C(=Cc1cccc(F)c1F)C(=O)N2 [10737/H05] | 9.9% |
| COc1ccc(C=C2C(=O)Nc3c(Br)cc(Br)c(C)c32)cc1F [10737/H06] | 5.8% |
